Results reported in ChEMBL document CHEMBL3044911, “Effect of distribution and concentration of topically applied neonicotinoid insecticides in buffalograss, Buchloe dactyloides, leaf tissues on the differential mortality of Blissus occiduus under field conditions” (Pest Manag Sci, 2013).
Activity calls are given as the source filed them. The rule behind the calls is not given here.

What was measured:
Lygaeidae [1] = assay: Insecticidal activity against first generation Blissus occiduus in buffalograss under field condition assessed as reduction in number at 9.6 kg/ha measured 3 days after treatment; assay type: functional, organism-based
Lygaeidae [2] = assay: Insecticidal activity against second generation Blissus occiduus in buffalograss under field condition assessed as reduction in number at 9.6 kg/ha measured 3 days after treatment; assay type: functional, organism-based
Lygaeidae [3] = assay: Insecticidal activity against first generation Blissus occiduus in buffalograss under field condition assessed as reduction in number at 9.6 kg/ha measured 106 days after treatment; assay type: functional, organism-based
Lygaeidae [4] = assay: Insecticidal activity against second generation Blissus occiduus in buffalograss under field condition assessed as reduction in number at 9.6 kg/ha measured 55 days after treatment; assay type: functional, organism-based
Lygaeidae [5] = assay: Insecticidal activity against second generation Blissus occiduus in buffalograss under field condition assessed as reduction in number at 9.6 kg/ha measured 28 days after treatment; assay type: functional, organism-based
Lygaeidae [6] = assay: Insecticidal activity against first generation Blissus occiduus in buffalograss under field condition assessed as reduction in number at 9.6 kg/ha measured 8 days after treatment; assay type: functional, organism-based
Lygaeidae [7] = assay: Insecticidal activity against second generation Blissus occiduus in buffalograss under field condition assessed as reduction in number at 9.6 kg/ha measured 7 days after treatment; assay type: functional, organism-based
Urochloa mutica [8] = assay: Drug level in […] (buffalo grass) measured per gram of fresh weight at 19.1 kg/ha measured 28 days after treatment; assay type: ADME, organism-based; details: in vivo, 672 h
Urochloa mutica [9] = assay: Drug level in […] (buffalo grass) measured per gram of fresh weight at 19.1 kg/ha measured 14 days after treatment; assay type: ADME, organism-based; details: in vivo, 336 h
Lygaeidae [10] = assay: Insecticidal activity against first generation Blissus occiduus in buffalograss under field condition assessed as reduction in number at 89.7 kg/ha measured 8 days after treatment; assay type: functional, organism-based
Lygaeidae [11] = assay: Insecticidal activity against first generation Blissus occiduus in buffalograss under field condition assessed as reduction in number at 89.7 kg/ha measured 3 days after treatment; assay type: functional, organism-based
Lygaeidae [12] = assay: Insecticidal activity against second generation Blissus occiduus in buffalograss under field condition assessed as reduction in number at 89.7 kg/ha measured 7 days after treatment; assay type: functional, organism-based
Lygaeidae [13] = assay: Insecticidal activity against second generation Blissus occiduus in buffalograss under field condition assessed as reduction in number at 89.7 kg/ha measured 3 days after treatment; assay type: functional, organism-based
Urochloa mutica [14] = assay: Drug level in […] (buffalo grass) measured per gram of fresh weight at 19.1 kg/ha measured 7 days after treatment; assay type: ADME, organism-based; details: in vivo, 168 h
Urochloa mutica [15] = assay: Drug level in […] (buffalo grass) measured per gram of fresh weight at 19.1 kg/ha measured 3 days after treatment; assay type: ADME, organism-based; details: in vivo, 72 h
Lygaeidae [16] = assay: Insecticidal activity against second generation Blissus occiduus in buffalograss under field condition assessed as reduction in number at 89.7 kg/ha measured 55 days after treatment; assay type: functional, organism-based
Lygaeidae [17] = assay: Insecticidal activity against first generation Blissus occiduus in buffalograss under field condition assessed as reduction in number at 89.7 kg/ha measured 106 days after treatment; assay type: functional, organism-based
Lygaeidae [18] = assay: Insecticidal activity against second generation Blissus occiduus in buffalograss under field condition assessed as reduction in number at 89.7 kg/ha measured 28 days after treatment; assay type: functional, organism-based
Urochloa mutica [19] = assay: Drug level in […] (buffalo grass) measured per gram of fresh weight at 89.7 kg/ha measured 28 days after treatment; assay type: ADME, organism-based; details: in vivo, 672 h
Urochloa mutica [20] = assay: Drug level in […] (buffalo grass) measured per gram of fresh weight at 89.7 kg/ha measured 14 days after treatment; assay type: ADME, organism-based; details: in vivo, 336 h
Urochloa mutica [21] = assay: Drug level in […] (buffalo grass) measured per gram of fresh weight at 89.7 kg/ha measured 7 days after treatment; assay type: ADME, organism-based; details: in vivo, 168 h
Urochloa mutica [22] = assay: Drug level in […] (buffalo grass) measured per gram of fresh weight at 89.7 kg/ha measured 3 days after treatment; assay type: ADME, organism-based; details: in vivo, 72 h
Urochloa mutica [23] = assay: Drug level in […] (buffalo grass) measured per gram of fresh weight at 9.6 kg/ha measured 14 days after treatment; assay type: ADME, organism-based; details: in vivo, 336 h
Lygaeidae [24] = assay: Insecticidal activity against first generation Blissus occiduus in buffalograss under field condition assessed as reduction in number at 19.1 kg/ha measured 8 days after treatment; assay type: functional, organism-based
Lygaeidae [25] = assay: Insecticidal activity against first generation Blissus occiduus in buffalograss under field condition assessed as reduction in number at 19.1 kg/ha measured 3 days after treatment; assay type: functional, organism-based
Lygaeidae [26] = assay: Insecticidal activity against second generation Blissus occiduus in buffalograss under field condition assessed as reduction in number at 19.1 kg/ha measured 7 days after treatment; assay type: functional, organism-based
Lygaeidae [27] = assay: Insecticidal activity against second generation Blissus occiduus in buffalograss under field condition assessed as reduction in number at 19.1 kg/ha measured 3 days after treatment; assay type: functional, organism-based
Lygaeidae [28] = assay: Insecticidal activity against first generation Blissus occiduus in buffalograss under field condition assessed as reduction in number at 19.1 kg/ha measured 106 days after treatment; assay type: functional, organism-based
Urochloa mutica [29] = assay: Drug level in […] (buffalo grass) measured per gram of fresh weight at 9.6 kg/ha measured 7 days after treatment; assay type: ADME, organism-based; details: in vivo, other, 168 h
Urochloa mutica [30] = assay: Drug level in […] (buffalo grass) measured per gram of fresh weight at 9.6 kg/ha measured 3 days after treatment; assay type: ADME, organism-based; details: in vivo, 72 h
Lygaeidae [31] = assay: Insecticidal activity against second generation Blissus occiduus in buffalograss under field condition assessed as reduction in number at 19.1 kg/ha measured 55 days after treatment; assay type: functional, organism-based
Lygaeidae [32] = assay: Insecticidal activity against second generation Blissus occiduus in buffalograss under field condition assessed as reduction in number at 19.1 kg/ha measured 28 days after treatment; assay type: functional, organism-based

In the case of O=[N+]([O-])/N=C1\NCCN1Cc1ccc(Cl)nc1, the Activity (Lygaeidae [1]) is reported as “Active”, the Activity (Lygaeidae [2]) is reported as “inactive” and the Activity (Lygaeidae [3]) is reported as “inactive”. The Activity (Lygaeidae [4]) was “Active”, the Activity (Lygaeidae [5]) was “inactive” and the Activity (Lygaeidae [6]) was “Active”. For the same compound, the Activity (Lygaeidae [7]) was “Active”.

With CN/C(=N\[N+](=O)[O-])NCc1cnc(Cl)s1 [CLOTHIANIDINE] the drug content (Urochloa mutica [8]) was 0.19 µg/g, the drug content (Urochloa mutica [9]) was 0.66 µg/g and the Activity (Lygaeidae [10]) was “Active”. The Activity (Lygaeidae [11]) was “Active”, the Activity (Lygaeidae [12]) was “Active” and the Activity (Lygaeidae [13]) was “Active”. For the same compound, the Drug uptake (Urochloa mutica [14]) was 1.56 µg/g, the drug content (Urochloa mutica [15]) was 6.48 µg/g and the Activity (Lygaeidae [16]) was “Active”. For the same compound, the Activity (Lygaeidae [17]) was “Active” and the Activity (Lygaeidae [18]) was “Active”.

Work on O=[N+]([O-])NC1=NCCN1Cc1ccc(Cl)nc1 [IMIDACLOPRID] yielded a drug content (Urochloa mutica [19]) of 0.2 µg/g, a drug content (Urochloa mutica [20]) of 0.77 µg/g and a drug content (Urochloa mutica [21]) of 3.25 µg/g. The drug content (Urochloa mutica [22]) was 14.2 µg/g.

For CN1COCN(Cc2cnc(Cl)s2)/C1=N\[N+](=O)[O-] [THIAMETHOXAM], the drug content (Urochloa mutica [23]) was 0.16 µg/g, the Activity (Lygaeidae [24]) was “Active” and the Activity (Lygaeidae [25]) was “Active”. The Activity (Lygaeidae [26]) was “Active”, the Activity (Lygaeidae [27]) was “inactive” and the Activity (Lygaeidae [28]) was “inactive”. For the same compound, the drug content (Urochloa mutica [29]) was 0.6 µg/g, the drug content (Urochloa mutica [30]) was 6.2 µg/g and the Activity (Lygaeidae [31]) was “Active”. For the same compound, the Activity (Lygaeidae [32]) was “Active”.
